Experimental data: patent US20100048704A1, “PHARMACEUTICAL AND NUTRACEUTICAL PRODUCTS COMPRISING VITAMIN K2” (NATTOPHARMA ASA, priority 2006, published 2010)

How the values were obtained:
[1] = tested on: MG63; experiment: Carboxylated osteocalcin in culture medium with a single form of vitamin K; type: cell-based; settings: 1% FCS, single form of vitamin K 1 μmol/L, 24 hours incubation
Method: (§1) Since under standard cell culture conditions no epoxides are formed, we have applied sub-optimal growth conditions by decreasing the fetal calf serum in the culture medium to 1% (v/v). […] This was ruled out in an experiment in which VSMC and MG63 were grown at 1% FCS and with only one single form of vitamin K present (1 μmol/L).

[2] = Stability of K vitamins in cell culture media with no cells present; type: physicochemical; settings: 1 μM of each vitamin, three growth media, over 48 hours
Method: Here we have checked the stability of the various forms of vitamin K (1 μM of each) in the three cell culture media with no cells present.

[3] = tested on: vascular smooth muscle cells, MG-63 cell line, HepG2 cell line; experiment: K epoxide formation in the presence of warfarin (bypassing of warfarin) in three cell types; type: cell-based; settings: for interference with warfarin: 10 μmol/L warfarin added 18 h before and present during vitamin K incubation
Method: (§2) This series of cell culture experiments describe vitamin K uptake and metabolism under various conditions. The following forms of vitamin K were compared: K1, MK-4, MK-7, MK-8 and MK-9. They were tested in three different cell types: the vascular smooth muscle cells, the osteoblast-like MG-63 cell line and the hepatocyte-like HepG2 cell line. In all experiments the vitamins were used as a mixture containing 1 μmol/L of each vitamin. All data are the means of triplicate experiments.
(§3) Under normal conditions, all forms of vitamin K are taken up in their quinone form, and they are reduced into the hydroquinone before being active as a cofactor for the enzyme gammaglutamylcarboxylase. During the carboxylation they are oxidized into epoxides, which can be reduced by the membrane-bound enzyme VKOR. VKOR forms the target for drugs known as coumarin derivatives, which inactivate the enzyme and thus block the recycling of K epoxides. Vitamin K quinones (and not the epoxides) can be reduced by a second enzyme system, known as DT diaphorase. […] Coumarin derivatives are widely used as oral anticoagulants; their mode of action is based on the inhibition of clotting factor carboxylation in the liver. Interference with coumarin derivatives is thus a potential risk of vitamin K supplements. Therefore we have investigated whether and to which extend the various K vitamins interfere with warfarin. In the study described, 10 μmol/L of warfarin was added to the culture media 18 h before adding vitamin K. Also during incubation with K vitamins this concentration of warfarin was present.

[4] = tested on: vascular smooth muscle cells, MG-63 cell line, HepG2 cell line; experiment: Cellular vitamin K uptake in three cell types; type: cell-based; settings: for cellular uptake compared with other K vitamins: all cells, mixture containing 1 μmol/L of each vitamin
Method: as §2
(§4) Cells were grown until 80% confluence after which vitamin K was added in different concentrations (see FIGS. 5A-C). The added vitamin K concentration is given as nmol/L of culture medium, the vitamin K recovered is given as nmol/g of cellular protein. Note the different scales for each vitamin.
Cellular uptake of K vitamins was followed in time. In all cases a mixture of the various K vitamins (1 μmol/L final concentration in the culture medium) was added to the cells after they had grown to 80% confluence. […] The mechanism behind this cellular preference for MK-7 is not quite clear.

[5] = tested on: vascular smooth muscle cells; experiment: Carboxylated matrix Gla-protein in culture medium with a single form of vitamin K; type: cell-based; settings: 1% FCS, single form of vitamin K 1 μmol/L, 24 hours incubation
Method: as §1

[6] = tested on: vascular smooth muscle cells, MG-63 cell line, HepG2 cell line; experiment: K epoxide formation without warfarin under cell starvation (1% fetal calf serum); type: cell-based; settings: no warfarin, fetal calf serum decreased to 1% (v/v)
Method: as §2, §1

[7] = tested on: MG63 cell line; experiment: K epoxide formation in the presence of warfarin in MG63; type: cell-based; settings: 10 μmol/L warfarin
Method: as §2
as §3, with “In the study described, 10 μmol/L of warfarin was added to the culture media 18 h before adding vitamin K. Also during incubation with K vitamins this concentration of warfarin was present.” left out

[8] = tested on: Matrix Gla-Protein (MGP); experiment: Carboxylated / non-carboxylated MGP in plasma by sandwich ELISA during fish oil and MK-7 intake; type: in vivo, human; settings: 5 g/day fish oil plus 10 μg/day MK-7, months 2, 3 and 4
Method: (§5) Twenty healthy males (43±8 years of age) were enrolled in the study. The mean body mass index was 25.1±3.5 kg/m^2. All subjects received 5 grams of fish oil (containing 35% EPA, 25% DHA and 10% other n-3 PUFA) per day during 4 months. During the last 3 months of the study all volunteers received additionally one soft gel capsule per day providing 10 μg of MK-7. Blood samples were collected in citrate every month to prepare platelet-rich plasma. The endogenous thrombin potential (ETP), reflecting the total thrombin activity during coagulation, was monitored according to H. C. Hemker et al. (Pathophysiology of Haemostasis and Thrombosis 2003; 33:4-15). Carboxylated and non-carboxylated Matrix Gla-Protein (MGP) species were monitored using sandwich ELISAs based on conformation-specific antibodies obtained from VitaK BV (Maastricht, The Netherlands) with normal pooled plasma as a reference. The ratio between carboxylated and non-carboxylated MGP is taken as a measure for vascular vitamin K status. All values are expressed as a percentage of those in the pooled reference plasma.

[9] = Stability of MK-7 dissolved in fish oil and krill oil; type: physicochemical; settings: for time compositions remained stable: MK-7 mixed with fish oil or krill oil
Method: Compositions as described in Examples 2 and 4 (MK-7 dissolved in fish oil and krill oil, respectively) were prepared to a final concentration of 2 μg of MK-7 per g of oil. Samples were prepared in sealed glass bottles and kept in a dark place at room temperature, 40° C. and 100° C., respectively. At regular times, samples were taken and analyzed for their MK-7 content. No loss of MK-7 was observed, even after 2 weeks at 100° C.

[10] = tested on: osteocalcin; experiment: Carboxylated / non-carboxylated osteocalcin in serum during fish oil and MK-7 intake; type: in vivo, human; settings: 5 g/day fish oil plus 10 μg/day MK-7, months 3 and 4
Description: In the same experiment as described above, also serum was collected, in which carboxylated and non-carboxylated osteocalcin species were monitored using the conformation-specific osteocalcin kits from Takara (Japan).

[11] = tested on: blood clotting factor carboxylation; settings: dosages as high as 100 μg per day; cited from earlier work
[12] = tested on: vascular smooth muscle cells; experiment: Cellular MK-7 uptake in vascular smooth muscle cells; type: cell-based; settings: FIG. 5D
Method: as §2, §4

[13] = tested on: MG63; experiment: Cellular MK-7 uptake in MG63; type: cell-based; settings: FIG. 5D
Method: as §2, §4

[14] = tested on: endogenous thrombin potential (ETP); experiment: Endogenous thrombin potential (ETP) in platelet-rich plasma of volunteers on fish oil, with or without MK-7; type: in vivo, human
Description: as §5, with “During the last 3 months of the study all volunteers received additionally one soft gel capsule per day providing 10 μg of MK-7.” left out

SMILES | Carboxylated osteocalcin in the culture medium [1] [ng/mL] | stability in growth media [2] | interference with warfarin [3] | cellular uptake compared with other K vitamins [4] | Carboxylated matrix Gla-protein in the culture medium [5] [ng/mL] | epoxides found without warfarin at decreased fetal calf serum [6] | utilization of K-vitamins in the presence of warfarin (rank order) ([3]; 10 μmol/L warfarin) | further results
CC1=C(C/C=C(\C)CCC[C@H](C)CCC[C@H](C)CCCC(C)C)C(=O)c2ccccc2C1=O [K1, vitamin K1, reference compound] | 3.2 | fairly stable | interfere substantially | much less | 12.4 | mainly found | – | –
CC(C)=CCC/C(C)=C/CC/C(C)=C/CC/C(C)=C/CC1=C(C)C(=O)c2ccccc2C1=O [MK-4] | 4.1 | – | interfere substantially | much less | 10.7 | mainly found | – | K vitamin epoxides identified in the presence of warfarin [7]: could only identify MK-4 epoxide
CC(C)=CCC/C(C)=C/CC/C(C)=C/CC/C(C)=C/CC/C(C)=C/CC/C(C)=C/CC/C(C)=C/CC1=C(C)C(=O)c2ccccc2C1=O [MK-7] | 3.9 | fairly stable | – | taken up better than other K vitamins | 13.5 | – | MK-7>MK-8>MK-9 | change in MGP carboxylation (ratio carboxylated / non-carboxylated MGP) [8]: significance was lost; loss of MK-7 content ([9]; 2 μg MK-7 per g fish oil or krill oil, sealed glass bottles, dark, room temperature, 40° C., 100° C., even after 2 weeks at 100° C.): No loss; time compositions remained stable ([9]; 40° C.): ≥ 6 months; time compositions remained stable ([9]; 100° C.): at least 2 weeks; time compositions remained stable ([9]; room temperature): ≥ 3 years; change in osteocalcin carboxylation [10]: significance was lost; effect on warfarin anticoagulation [11]: counteract the effect of warfarin; vitamin K uptake compared between cell types [12]: highest; vitamin K uptake compared between cell types [13]: lowest; cellular uptake compared with other K vitamins (dose-response, Experiment 6) ([4]; all systems, notably extrahepatic cells, cells at 80% confluence): taken up surprisingly better than the other K vitamins; cellular uptake compared with other K vitamins (time course, Experiment 7) ([4]; all three cell systems, mixture 1 μmol/L): taken up better than any of the other vitamins; fish-oil induced hypocoagulability (ETP) ([14]; 10 μg/day MK-7 during last 3 of 4 months on 5 g/day fish oil): not counteracted; ETP lowering effect of marine oils ([14]; MK-7 100 μg per day and higher, marine oil intake 5 grams per day): completely reversed; endogenous thrombin potential (ETP) ([14]; MK-7 between 1 and 10 μg/day, marine oil intake 5 grams per day): did not affect
CC(C)=CCC/C(C)=C/CC/C(C)=C/CC/C(C)=C/CC/C(C)=C/CC/C(C)=C/CC/C(C)=C/CC/C(C)=C/CC1=C(C)C(=O)c2ccccc2C1=O [MK-8] | – | fairly stable | – | somewhat less | – | – | MK-7>MK-8>MK-9 | –
CC(C)=CCC/C(C)=C/CC/C(C)=C/CC/C(C)=C/CC/C(C)=C/CC/C(C)=C/CC/C(C)=C/CC/C(C)=C/CC/C(C)=C/CC1=C(C)C(=O)c2ccccc2C1=O [MK-9] | – | fairly stable | – | somewhat less | – | – | MK-7>MK-8>MK-9 | epoxide formation in the presence of warfarin ([3]; 10 μmol/L warfarin, FIG. 7): hardly formed
